Results taken from ChEMBL document CHEMBL3046455, “Synthesis and pharmacological evaluation of some novel 4-isopropyl thiazole-based sulfonyl derivatives as potent antimicrobial and antitubercular agents” (Med Chem Res, 2013).
Converted amounts (≈) assume the structure as drawn.

Legend:
Aspergillus niger = assay: Antifungal activity against Aspergillus niger ATCC 6275 after 24 hr by broth microdilution method; format: functional; conditions: ATCC 6275, 24 h
Saccharomyces cerevisiae = assay: Antifungal activity against Saccharomyces cerevisiae ATCC 9763 after 24 hr by broth microdilution method; format: functional; conditions: ATCC 9763, 24 h
Candida tropicalis = assay: Antifungal activity against Candida tropicalis ATCC 1369 after 24 hr by broth microdilution method; format: functional; conditions: ATCC 1369, 24 h
Pseudomonas aeruginosa = assay: Antibacterial activity against Pseudomonas aeruginosa ATCC 10145 after 24 hr by broth microdilution method; format: functional; conditions: ATCC 10145, 24 h
Klebsiella pneumoniae = assay: Antibacterial activity against Klebsiella pneumoniae ATCC 10031 after 24 hr by broth microdilution method; format: functional; conditions: ATCC 10031, 24 h
Staphylococcus aureus = assay: Antibacterial activity against Staphylococcus aureus ATCC 11632 after 24 hr by broth microdilution method; format: functional; conditions: ATCC 11632, 24 h
Enterococcus faecalis = assay: Antibacterial activity against Enterococcus faecalis ATCC 14506 after 24 hr by broth microdilution method; format: functional; conditions: ATCC 14506, 24 h
Bacillus subtilis = assay: Antibacterial activity against Bacillus subtilis ATCC 60511 after 24 hr by broth microdilution method; format: functional; conditions: ATCC 60511, 24 h
Escherichia coli = assay: Antibacterial activity against Escherichia coli ATCC 10536 after 24 hr by broth microdilution method; format: functional; conditions: ATCC 10536, 24 h
[1] = test system: Mycobacterium tuberculosis; assay: Antitubercular activity against Mycobacterium tuberculosis H37Rv after 21 days by broth microdilution method; format: functional; conditions: 504 h
A549 = assay: Cytotoxicity against Homo sapiens (human) A549 cells at […] by MTT assay relative to control; format: cell-based

Row | Compound | MIC (Aspergillus niger) | MIC (Saccharomyces cerevisiae) | MIC (Candida tropicalis) | MIC (Pseudomonas aeruginosa) | MIC (Klebsiella pneumoniae) | MIC (Staphylococcus aureus) | MIC (Enterococcus faecalis) | MIC (Bacillus subtilis) | MIC (Escherichia coli) | MIC [1] | Activity (A549)
1 | OC(Cn1cncn1)(Cn1cncn1)c1ccc(F)cc1F [FLUCONAZOLE] | ≤ 1 µg/mL | ≤ 1 µg/mL | ≤ 1 µg/mL |  |  |  |  |  |  |  | 
2 | CC(C)c1csc(-c2nnc(S(=O)(=O)Cc3ccc(Cl)cc3)n2/N=C/c2ccc(F)cc2)n1 | 31.2 µg/mL (≈ 62 µM) | 31.2 µg/mL (≈ 62 µM) | 31.2 µg/mL (≈ 62 µM) | 16 µg/mL (≈ 31.7 µM) | 31.2 µg/mL (≈ 62 µM) | 8 µg/mL (≈ 15.9 µM) | 4 µg/mL (≈ 7.94 µM) | 4 µg/mL (≈ 7.94 µM) | 16 µg/mL (≈ 31.7 µM) | 8 µg/mL (≈ 15.9 µM) | 
3 | CC(C)c1csc(-c2nnc(S(=O)(=O)Cc3ccc(Cl)cc3)n2/N=C/c2c(F)cccc2F)n1 | 31.2 µg/mL (≈ 59.9 µM) | 62.5 µg/mL (≈ 120 µM) | 16 µg/mL (≈ 30.7 µM) | 62.5 µg/mL (≈ 120 µM) | 31.2 µg/mL (≈ 59.9 µM) | 31.2 µg/mL (≈ 59.9 µM) | 31.2 µg/mL (≈ 59.9 µM) | 8 µg/mL (≈ 15.3 µM) | 8 µg/mL (≈ 15.3 µM) | 8 µg/mL (≈ 15.3 µM) | 
4 | CC(C)c1csc(-c2nnc(S(=O)(=O)Cc3ccc(C(F)(F)F)cc3)n2/N=C/c2ccc(F)cc2)n1 | 4 µg/mL (≈ 7.44 µM) | 4 µg/mL (≈ 7.44 µM) | 16 µg/mL (≈ 29.8 µM) | 8 µg/mL (≈ 14.9 µM) | 4 µg/mL (≈ 7.44 µM) | 4 µg/mL (≈ 7.44 µM) | 8 µg/mL (≈ 14.9 µM) | 8 µg/mL (≈ 14.9 µM) | 8 µg/mL (≈ 14.9 µM) | 2 µg/mL (≈ 3.72 µM) | Toxic
5 | O=C(O)c1cn(C2CC2)c2cc(N3CCNCC3)c(F)cc2c1=O [CIPROFLOXACIN] |  |  |  | ≤ 5 µg/mL | ≤ 1 µg/mL | ≤ 5 µg/mL | ≤ 5 µg/mL | ≤ 1 µg/mL | ≤ 1 µg/mL |  | 
6 | CC(C)c1csc(-c2nnc(S(=O)(=O)Cc3ccc(Br)cc3F)n2/N=C/c2ccc(Cl)cc2)n1 | 8 µg/mL (≈ 13.7 µM) | 16 µg/mL (≈ 27.4 µM) | 8 µg/mL (≈ 13.7 µM) | 16 µg/mL (≈ 27.4 µM) | 31.2 µg/mL (≈ 53.6 µM) | 31.2 µg/mL (≈ 53.6 µM) | 31.2 µg/mL (≈ 53.6 µM) | 8 µg/mL (≈ 13.7 µM) | 62.5 µg/mL (≈ 107 µM) | 8 µg/mL (≈ 13.7 µM) | 
7 | CC(C)c1csc(-c2nnc(S(=O)(=O)Cc3ccc(Br)cc3)o2)n1 | 31.2 µg/mL (≈ 73 µM) | 62.5 µg/mL (≈ 146 µM) | 31.2 µg/mL (≈ 73 µM) | 8 µg/mL (≈ 18.7 µM) | 8 µg/mL (≈ 18.7 µM) | 8 µg/mL (≈ 18.7 µM) | 31.2 µg/mL (≈ 73 µM) | 31.2 µg/mL (≈ 73 µM) | 4 µg/mL (≈ 9.34 µM) | 4 µg/mL (≈ 9.34 µM) | 
8 | CC(C)c1csc(-c2nnc(S(=O)(=O)Cc3ccc(Br)cc3F)n2/N=C/c2ccc(F)cc2)n1 | 31.2 µg/mL (≈ 55.2 µM) | 31.2 µg/mL (≈ 55.2 µM) | 31.2 µg/mL (≈ 55.2 µM) | 62.5 µg/mL (≈ 110 µM) | 8 µg/mL (≈ 14.1 µM) | 16 µg/mL (≈ 28.2 µM) | 31.2 µg/mL (≈ 55.2 µM) | 31.2 µg/mL (≈ 55.2 µM) | 8 µg/mL (≈ 14.1 µM) | 16 µg/mL (≈ 28.2 µM) | 
9 | CC(C)c1csc(-c2nnc(S(=O)(=O)Cc3cc(Cl)ccc3F)n2-c2ccccc2)n1 | 31.2 µg/mL (≈ 65.5 µM) | 16 µg/mL (≈ 33.5 µM) | 16 µg/mL (≈ 33.5 µM) | 8 µg/mL (≈ 16.8 µM) | 8 µg/mL (≈ 16.8 µM) | 16 µg/mL (≈ 33.5 µM) | 31.2 µg/mL (≈ 65.5 µM) | 31.2 µg/mL (≈ 65.5 µM) | 4 µg/mL (≈ 8.39 µM) | 4 µg/mL (≈ 8.39 µM) | 
10 | CC(C)c1csc(-c2nnc(S(=O)(=O)Cc3ccccc3)o2)n1 | 16 µg/mL (≈ 45.8 µM) | 4 µg/mL (≈ 11.4 µM) | 8 µg/mL (≈ 22.9 µM) | 8 µg/mL (≈ 22.9 µM) | 8 µg/mL (≈ 22.9 µM) | 62.5 µg/mL (≈ 179 µM) | 16 µg/mL (≈ 45.8 µM) | 31.2 µg/mL (≈ 89.4 µM) | 8 µg/mL (≈ 22.9 µM) | 4 µg/mL (≈ 11.4 µM) | 
11 | CC(C)c1csc(-c2nnc(S(=O)(=O)Cc3ccc(Br)cc3)n2-c2ccccc2)n1 | 16 µg/mL (≈ 31.8 µM) | 16 µg/mL (≈ 31.8 µM) | 16 µg/mL (≈ 31.8 µM) | 8 µg/mL (≈ 15.9 µM) | 16 µg/mL (≈ 31.8 µM) | 8 µg/mL (≈ 15.9 µM) | 16 µg/mL (≈ 31.8 µM) | 16 µg/mL (≈ 31.8 µM) | 16 µg/mL (≈ 31.8 µM) | 8 µg/mL (≈ 15.9 µM) | 
12 | NNC(=O)c1ccncc1 [ISONIAZID] |  |  |  |  |  |  |  |  |  | 0.25 µg/mL (≈ 1.82 µM) | 
13 | CC(C)c1csc(-c2nnc(S(=O)(=O)Cc3ccc(C(F)(F)F)cc3)n2-c2ccccc2)n1 | 16 µg/mL (≈ 32.5 µM) | 16 µg/mL (≈ 32.5 µM) | 31.2 µg/mL (≈ 63.4 µM) | 16 µg/mL (≈ 32.5 µM) | 16 µg/mL (≈ 32.5 µM) | 4 µg/mL (≈ 8.12 µM) | 8 µg/mL (≈ 16.2 µM) | 8 µg/mL (≈ 16.2 µM) | 16 µg/mL (≈ 32.5 µM) | 4 µg/mL (≈ 8.12 µM) | 
14 | CC(C)c1csc(-c2nnc(S(=O)(=O)Cc3ccc(Br)cc3F)n2-c2ccccc2)n1 | 16 µg/mL (≈ 30.7 µM) | 16 µg/mL (≈ 30.7 µM) | 31.2 µg/mL (≈ 59.9 µM) | 16 µg/mL (≈ 30.7 µM) | 16 µg/mL (≈ 30.7 µM) | 31.2 µg/mL (≈ 59.9 µM) | 31.2 µg/mL (≈ 59.9 µM) | 16 µg/mL (≈ 30.7 µM) | 8 µg/mL (≈ 15.3 µM) | 8 µg/mL (≈ 15.3 µM) | 
15 | CCn1cc(C(=O)O)c(=O)c2cc(F)c(N3CCNCC3)cc21 [NORFLOXACIN] |  |  |  | ≤ 5 µg/mL | ≤ 1 µg/mL | ≤ 5 µg/mL | ≤ 5 µg/mL | ≤ 1 µg/mL | ≤ 1 µg/mL |  | 
16 | CC(C)c1csc(-c2nnc(S(=O)(=O)Cc3ccc(Cl)cc3)n2/N=C/c2ccc(Cl)cc2)n1 | 8 µg/mL (≈ 15.4 µM) | 16 µg/mL (≈ 30.7 µM) | 8 µg/mL (≈ 15.4 µM) | 8 µg/mL (≈ 15.4 µM) | 31.2 µg/mL (≈ 60 µM) | 8 µg/mL (≈ 15.4 µM) | 8 µg/mL (≈ 15.4 µM) | 31.2 µg/mL (≈ 60 µM) | 62.5 µg/mL (≈ 120 µM) | 8 µg/mL (≈ 15.4 µM) | 
17 | CC(C)c1csc(-c2nnc(S(=O)(=O)Cc3ccc(Br)cc3F)n2/N=C/c2c(F)cccc2F)n1 | 16 µg/mL (≈ 27.4 µM) | 16 µg/mL (≈ 27.4 µM) | 16 µg/mL (≈ 27.4 µM) | 8 µg/mL (≈ 13.7 µM) | 31.2 µg/mL (≈ 53.5 µM) | 31.2 µg/mL (≈ 53.5 µM) | 31.2 µg/mL (≈ 53.5 µM) | 16 µg/mL (≈ 27.4 µM) | 16 µg/mL (≈ 27.4 µM) | 8 µg/mL (≈ 13.7 µM) | 
18 | CC(C)c1csc(-c2nnc(S(=O)(=O)Cc3ccccc3)n2/N=C/c2c(F)cccc2F)n1 | 8 µg/mL (≈ 16.4 µM) | 8 µg/mL (≈ 16.4 µM) | 16 µg/mL (≈ 32.8 µM) | 4 µg/mL (≈ 8.2 µM) | 31.2 µg/mL (≈ 64.1 µM) | 4 µg/mL (≈ 8.2 µM) | 8 µg/mL (≈ 16.4 µM) | 62.5 µg/mL (≈ 128 µM) | 31.2 µg/mL (≈ 64.1 µM) | 4 µg/mL (≈ 8.2 µM) | 
19 | CC(C)c1csc(-c2nnc(S(=O)(=O)Cc3ccc(Cl)cc3)o2)n1 | 16 µg/mL (≈ 41.7 µM) | 8 µg/mL (≈ 20.8 µM) | 8 µg/mL (≈ 20.8 µM) | 8 µg/mL (≈ 20.8 µM) | 8 µg/mL (≈ 20.8 µM) | 16 µg/mL (≈ 41.7 µM) | 31.2 µg/mL (≈ 81.4 µM) | 8 µg/mL (≈ 20.8 µM) | 4 µg/mL (≈ 10.4 µM) | 4 µg/mL (≈ 10.4 µM) | 
20 | CC(C)c1csc(-c2nnc(S(=O)(=O)Cc3cc(Cl)ccc3F)o2)n1 | 8 µg/mL (≈ 19.9 µM) | 16 µg/mL (≈ 39.8 µM) | 8 µg/mL (≈ 19.9 µM) | 4 µg/mL (≈ 9.95 µM) | 4 µg/mL (≈ 9.95 µM) | 8 µg/mL (≈ 19.9 µM) | 31.2 µg/mL (≈ 77.8 µM) | 8 µg/mL (≈ 19.9 µM) | 8 µg/mL (≈ 19.9 µM) | 4 µg/mL (≈ 9.95 µM) | 
21 | CC(C)c1csc(-c2nnc(S(=O)(=O)Cc3ccc(Br)cc3)n2/N=C/c2c(F)cccc2F)n1 | 8 µg/mL (≈ 14.1 µM) | 62.5 µg/mL (≈ 110 µM) | 8 µg/mL (≈ 14.1 µM) | 8 µg/mL (≈ 14.1 µM) | 8 µg/mL (≈ 14.1 µM) | 31.2 µg/mL (≈ 55.2 µM) | 16 µg/mL (≈ 28.2 µM) | 16 µg/mL (≈ 28.2 µM) | 8 µg/mL (≈ 14.1 µM) | 8 µg/mL (≈ 14.1 µM) | 
22 | CC(C)c1csc(-c2nnc(S(=O)(=O)Cc3ccc(Br)cc3)n2/N=C/c2ccc(F)cc2)n1 | 125 µg/mL (≈ 228 µM) | 31.2 µg/mL (≈ 57 µM) | 31.2 µg/mL (≈ 57 µM) | 62.5 µg/mL (≈ 114 µM) | 8 µg/mL (≈ 14.6 µM) | 62.5 µg/mL (≈ 114 µM) | 62.5 µg/mL (≈ 114 µM) | 8 µg/mL (≈ 14.6 µM) | 8 µg/mL (≈ 14.6 µM) | 8 µg/mL (≈ 14.6 µM) | 
